Results reported in patent US10765747B2 (SWEDISH ORPHAN BIOVITRUM AB (PUBL), priority 2004, dated 2020).
Like-named read-outs stand apart in the source and are kept apart here.

Assays:
[1] = pH 6.5 and 39° C., estimated from literature-reported pKas
IL-1ra [2] = biological target: T1, IL-1ra (Homo sapiens, UniProt P18510); conditions: for reduction in the rate of aggregation of IL-1ra: 10 mM accessory molecule
Procedure: The rate of aggregation was determined as the slope of the linear region of the saturation curve calculated using the SoftMax Pro program (Molecular Devices).

[3] = biological target: T2, anion binding site on IL-1ra (Homo sapiens, UniProt P18510); conditions: for Kd: read-out: K^dX, Kd for competing anion binding to the anion binding site of IL-1ra, competition with 10 mM citrate, 1 mM IL-1ra, pH 6.5, 70 mM NaCl
Text: (§2) After spinning, about half of the solution passed through the filter as filtrate, while the remaining solution remained above the filter as retentate.
(§3) K^dL is the Kd for ligand binding to protein and is equal to the concentration of P (free protein) times the concentration of L (free ligand), divided by the concentration of PL (protein bound to ligand). K^dX is the Kd for competitive anion binding to protein and is equal to the concentration of P (free protein) times the concentration of X (free competing anion), divided by concentration of PX (protein bound to competing anion).
(§4) By replacing the (PX) term with (Xfree)(Pfree)/K^dX, which is derived from the equilibrium equation shown above, the expression for K^dLapp can be reduced to: K^dLapp=K^dL[1+(Xfree/K^dX)] Thus, if K^dLapp is plotted versus Xfree, the y-intercept will be equal to K^dL and the slope will be equal to K^dL/K^dX. Rearranging, K^dX will be equal to the y-intercept divided by the slope.
(§5) The concentration of free protein is calculated to be the total concentration of protein in the sample minus the concentration of bound protein (which is equal to the concentration of bound ligand). […] In other words, Xfree=Xtotal−ΔXbound as Xtotal is increased.

IL-1ra [4] = biological target: T1, IL-1ra; assay: Derivatization of IL-1ra with methyl acetyl phosphate (MAP) in various buffers, reverse-phase HPLC; design: additional N-terminal methionine (not a tag proper); host or cells: E. coli (stated for anakinra in the background); conditions: for rate of derivatization of IL-1ra with MAP compared with phosphate buffer: pH 6.3, 6.5, 6.7; for rate of derivatization of IL-1ra with MAP in 20 mM compared with 10 mM buffer: pH 6.5
Procedure: IL-1ra was derivatized with MAP in the presence of citrate or phosphate as follows. […] The reaction was incubated at 37° C. and 25 μl aliquots were taken using an HPLC autosampler at 0, 45, 90, 135, 180, 225, and 270 minutes. Each aliquot was analyzed by reverse-phase HPLC using an Agilent 110 HPLC equipped with a Jupiter 5u C4 300A reverse-phase HPLC column (4.6×250 mm, Phenomenex, Torrance, Calif.), an on-line UV detector and a temperature-controlled 100-well sample tray set at 37° C. The flow rate was set at 1 ml/min and the column was maintained at a temperature of 50° C. The column was pre-equilibrated for 15 min (flow rate 1 ml/min) with 65% buffer A (0.1% trifluoroacetic acid (TFA) in water) and 35% buffer B (90% acetonitrile, 0.1% TFA in water). After loading, the analytes were eluted using a gradient ramping from 35% to 50% buffer B (90% acetonitrile, 0.1% TFA in water) over 25 minutes.
(§1) The reaction was incubated at 37° C. and 25 μl aliquots were taken using an HPLC autosampler at 0, 45, 90, 135, 180, 225, and 270 minutes. Each aliquot was analyzed by reverse-phase HPLC as described above for derivatization in the presence of citrate.
as §1, with “citrate. […] Four weakly resolved peaks were identified in this experiment and are indicated on FIG. 15.” for “citrate.”
In particular, each chromatogram from FIG. 16A was deconvoluted using PeakFit™ (Systat Software Inc.). The area under the each of the deconvoluted peaks (peaks 1-4) at each time point (0, 45, 90, 135, 180, 225, and 270 minutes) was then integrated. Deconvoluted peaks 1-4 are labeled on FIG. 16B and the integrated area under each one is shown below. […] The integrated area of deconvoluted peak 4 at time points 0, 45, 90, 135, 180 minutes was then plotted against the incubation time of the reaction that produced that peak. The resulting line has a slope of 68.931 hour^−1.
The rate of derivatization of IL-1ra with MAP was then calculated for various experiments in the presence of various buffers and at various pHs, according to the methods discussed above.

[5] = pH 6.5 and 39° C.; cited from earlier work
[6] = biological target: T2, anion binding site on IL-1ra; assay: biochemical; conditions: K^dL, Kd of citrate (y-intercept of K^dLapp plot)
Text: as §2, §3, §4, §5

IL-1ra [7] = biological target: T1, IL-1ra; assay: Citrate binding to IL-1ra (spin column filtration, HPLC, Scatchard plot)
[8] = pH 6.5, 29° C., IL-1ra 140 mg/ml

T2 sequence (P18510 with tags, fused parts or gaps): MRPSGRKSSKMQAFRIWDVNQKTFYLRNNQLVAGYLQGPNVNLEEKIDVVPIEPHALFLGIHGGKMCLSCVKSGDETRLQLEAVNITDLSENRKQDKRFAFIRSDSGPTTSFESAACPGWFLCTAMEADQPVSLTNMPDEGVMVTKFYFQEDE
T1 sequence (P18510 with tags, fused parts or gaps): as above

## phosphate
[1]
  predicted negative charges: predominantly one negative charge
IL-1ra [2]; [8]
  reduction in the rate of aggregation of IL-1ra: ~20%
[3]
  Kd: 12.6 mM
IL-1ra [4]; 10 mM buffer, 270 minutes, 37° C.
  level of derivatization with MAP at all positions except the N-terminal amine, compared with citrate or pyrophosphate: greater
IL-1ra [4]; 10 mM buffer, pH 6.3, 6.5 or 6.7, 5.5 hours
  extent of derivatization of IL-1ra with MAP compared with citrate: greater extent

## O=P(O)(O)OP(=O)(O)O [pyrophosphate]
[5]
  estimated pKa, first ionizable hydrogen: 0.83
  estimated pKa, fourth ionizable hydrogen: 9.46
  estimated pKa, second ionizable hydrogen: 2.26
  estimated pKa, third ionizable hydrogen: 6.72
[1]
  predicted negative charges: between two and three negative charges
IL-1ra [2]; [8]
  reduction in the rate of aggregation of IL-1ra: ~90%
  concentration at which the reduction in the rate of aggregation leveled off: 20 mM
IL-1ra [2]; 1 to 125 mM, 29° C.
  rate of aggregation of IL-1ra with increasing anion concentration, compared with phosphate buffer: decreased more rapidly
[3]; 0-20 mM competing anion, 10 mM citrate
  competing with citrate for the citrate binding site on IL-1ra, compared with phosphate: more effective
[3]
  Kd: 2.99 mM
IL-1ra [4]
  rate of derivatization of IL-1ra with MAP compared with phosphate buffer: slower
  rate of derivatization of IL-1ra with MAP in 20 mM compared with 10 mM buffer: slower

## IL-1ra: Purified human recombinant interleukin-1 receptor antagonist having the amino acid sequence of SEQ ID NO: 5 (anakinra)
IL-1ra [4]; 10 mM citrate, pH 6.5, 37° C., time points 0-180 minutes
  rate of derivatization of IL-1ra with MAP (slope of integrated area of deconvoluted peak 4 versus incubation time): 68.931 h⁻¹

## O=C(O)CC(O)(CC(=O)O)C(=O)O [citrate]
[1]
  predicted negative charges: three negative charges
IL-1ra [2]; [8]
  reduction in the rate of aggregation of IL-1ra: ~90%
[6]; phosphate competition experiment, data not shown
  Kd: 5 mM
[6]; pyrophosphate competition experiment
  Kd: 3.89 mM
IL-1ra [4]
  rate of derivatization of IL-1ra with MAP compared with phosphate buffer: slower
  rate of derivatization of IL-1ra with MAP in 20 mM compared with 10 mM buffer: slower
IL-1ra [7]
  Kd: 3.85 mM
IL-1ra [7]; pH 6.5, 70 mM NaCl
  number of binding sites on IL-1ra (x-intercept of Scatchard plot): 0.94
